# Assay results: EP2620142A1, “Hedgehog signaling pathway involved in energy metabolism” (Max-Planck-Gesellschaft zur Förderung der Wissenschaften …, priority 2012, dated 2013)
# Tests used:
# 3T3-L1 adipocytes [1] = assay: Calcium flux measurement (FluoForte); type: cell-based, Murine
# Experimental: 3T3-L1 cells were cultured and differentiated in black wall/clear bottom 96-well plates (Corning). At day seven post-induction, cells were starved overnight in DMEM containing 1 % BSA and loaded with the calcium dye FluoForte AM (Enzo Lifescience) according to the instructions provided by the manufacturer. Intracellular calcium levels were measured using a Synergy 4 microplate reader (BioTeK). […] Baselines for each well were acquired before injection and subtracted afterwards. Ionomycin and EGTA were injected in concentrations of 1 µM.
# 3T3-L1 adipocytes [2] = type: cell-based, Murine
# Experimental: Murine 3T3-L1 preadipocytes (ATCC) were maintained in DMEM containing 10% heat inactivated calf serum (CS) at 37°C and 5% CO2. Two days post-confluence, adipocyte differentiation was induced by treating cells with 0.25 mM 3-Isobutyl-1-methylxanthine (IBMX), 1 µM dexamethasone, 1.74 µM insulin and 5 µM Troglitazone in DMEM containing 10% fetal bovine serum (FBS). After 48 hours, the medium was replaced with DMEM supplemented with 10% FBS, insulin and Troglitazone alone. After an additional 48 hours, cells were switched to DMEM with 10% FBS for the rest of the differentiation process and the medium was changed every other day. Seven days post-induction, differentiated 3T3-L1 1 adipocytes were starved overnight in DMEM containing 1 % Bovine Serum Albumin (BSA) before starting different treatments as indicated in the text.
# Differentiated 3T3-L1 adipocytes were starved overnight in DMEM containing 1 % BSA and treated as indicated. NAD^+, NADP^+, NADH, and NADPH were determined using the Enzychrom NAD^+/NADH and the Enzychrom NADP^+/NADPH assay kit, respectively (BioAssay Systems) according to manufacturer's instructions. To measure glucose consumption and lactate production, the Glucose RTU and Lactate RTU kits (Biomerieux) were used according to manufacturer's instruction and normalized to cell number. AMP, ADP and ATP were determined as previously described^51. In brief, cells were washed once with ice cold PBS and proteins were precipitated with 1 % trichloroacetic acid (TCA). Repeated ether washes were used to remove TCA from the aqueous extract phase. Extracts were dried and stored at -80°C until further processing. To determine nucleotide phosphates by reversed-phase HPLC cell extracts were lyophilized for 3 days at -20 °C. Dried samples were dissolved in mobile phase A (60 mM K2HP04 and 40 mM KH2P04, adjusted to pH 7 with 0.1 M KOH). 20 µL were injected into an Agilent 1200 HPLC system (Agilent) and nucleotides were separated by gradient elution from an Agilent Eclipse XDB-C18 4.6 x 150 mm column at a flow rate of 1 mL/min. The gradient was 99% phase A from 0-5 minutes, 99% phase A to 40% A from 5-20 minutes and 99% phase A from 20-32.5 minutes. 100% acetonitrile served as mobile phase B. Eluting nucleotides were monitored on a UV detector at 254 nm. ATP, ADP and AMP standards were used to generate calibration curves for peak quantifications.
# AMPK = assay: AMPKAR FRET assay of AMPK activity; type: cell-based, Human; details: cyclopamine, HEK293 with AMPK-AR reporter
# Experimental: HEK293 cells (ATCC) were grown in DMEM containing 10% FBS. 2 x 10^6 cells were seeded in 10 cm dishes and transfected using the GeneJuice Reagent (Merck) according to manufacturer's instructions. 48 hours after transfection, cells were resuspended in PBS and used for FRET assays.
# HEK293 cells transfected with the AMPK-AR construct^40 were resuspended in PBS at a concentration of 10^5 cells/ml. A Synergy 4 microplate reader (BioTeK) was used for measuring FRET signals. In brief, compounds were pipetted into a 96-well plate at the concentrations indicated in the text. Cell suspensions were pre-loaded in the reader to be injected at 10^4 cells/well. The FRET signal was detected using 420/50 nm and 528/20 nm as excitation and emission settings. Baseline values for each well were acquired before injection and subtracted afterwards.
# [3] = tested on: STZ-treated C57BL/6J mice; assay: Cyclopamine tolerance test in STZ-treated mice; type: in vivo
# Experimental: (§1) C57BL/6J mice were maintained on a standard rodent chow diet and a 12 hour light: 12 hour dark cycle. Eight week old, over-night fasted C57BL/6J male mice were injected intraperitoneally (i.p.) with vehicle (45% hydroxypropyl-β-cyclodextrin; HBS) or cyclopamine (10 mg/kg). Fifteen minutes after injection, an oral glucose tolerance test (OGTT) was performed by administering 2 g/kg glucose by oral gavage. Tail-vein blood was collected to measure glucose and insulin levels. Insulin was measured using the ultrasensitive insulin ELISA Kit from Mercodia, according to the manufacturer's recommendations. For cyclopamine tolerance tests eight week old C57BL/6J mice were i.p. injected with streptozotocin (STZ, 200 mg/kg body weight) to destroy pancreatic beta-cells. 72 hours later STZ-treated mice were separated into two groups and injected i.p. with either vehicle or 10 mg/kg cyclopamine. All animal experiments were carried out according to an ethical animal license protocol in accordance to the animal protection law and approved by the Regierungspräsidium Freiburg (Tierversuchsvorhaben Registrier-Nr.: G-10/94).
# C57BL/6J mice [4] = assay: Oral glucose tolerance test (OGTT); type: in vivo
# Experimental: as §1
# Smoothened = details: cyclopamine 100 nM against standard 200 nM SAG; cited from earlier work
# C57BL/6J mice [5] = assay: Glycemic-insulinemic clamp with somatostatin infusion; type: in vivo
# Experimental: Indwelling catheters were placed into the left femoral vein and externalised in the interscapular region of 11 week old C57BL/6J mice^17,52. The animals were allowed to recover for 5 days and fasted for 16 hours before the experiment. Somatostatin (SST14 Bachem, Switzerland) was infused at a rate of 1 µg/kg/min and hyperglycemia (12.5 mM) was maintained by variable infusion of 10% glucose. Steady state was maintained for 90 min before cyclopamine injection (2/3 bolus 1/3 infusion; low dose = 1 mg/kg, high-dose = 10 mg/kg), or HBS (Control). Whole blood was sampled from the tail every 10 min during the last hour using a glucometer (AccuCheck Aviva; Roche Diagnostics, Meylan, France).
smiles,measurement,setting,value
O=C(O)CN(CCOCCOCCN(CC(=O)O)CC(=O)O)CC(=O)O [EGTA],effect on cyclopamine-induced Ca++ response,3T3-L1 adipocytes [1]; EGTA 1 µM,sensitive to extracellular EGTA
same,effect on SAG- and Shh-induced Ca++ responses,"3T3-L1 adipocytes [1]; EGTA 1 µM, extracellular calcium chelator",completely abrogated the SAG-and Shh-induced responses
c1cc(-c2cnn3cc(-c4ccc(OCCN5CCCCC5)cc4)cnc23)ccn1 [compound C],"effect on SAG-induced metabolic rewiring (glucose uptake, lactate production, redox balance)","3T3-L1 adipocytes [2]; SAG 200 nM, compound C 10 µM, nifedipine 20 µM, Ptx 100 ng/ml",abrogated all detectable metabolic rewiring effects following SAG stimulation
same,"effect on cyclopamine-dependent glucose uptake, lactate production and redox rebalancing","3T3-L1 adipocytes [2]; cyclopamine 100 nM, compound C 10 µM, nifedipine 20 µM, Ptx 100 ng/ml",efficiently counteracted
"CC1=C2C[C@H]3[C@@H](CC=C4C[C@@H](O)CC[C@@]43C)[C@@H]2CC[C@]12O[C@@H]1C[C@H](C)CN[C@H]1[C@H]2C [cyclopamine, 11-deoxojervine]",Ampk sensitive FRET signal,AMPK,significant Ampk sensitive FRET signal
same,Ca++ response,3T3-L1 adipocytes [1]; cyclopamine,rapid and robust Ca^++ response
same,glucose clearance,"[3]; 10 mg/kg i.p., insulin-deficient mice",significant and robust glucose clearance
same,time to glucose clearance,"[3]; after cyclopamine injection, 10 mg/kg",~30 min
same,glucose tolerance,"C57BL/6J mice [4]; 10 mg/kg i.p. 15 minutes prior to testing, 2 g/kg oral glucose",moderate but significant improvement in glucose tolerance
same,basal and glucose-stimulated insulin secretion,C57BL/6J mice [4]; 10 mg/kg i.p. pre-treatment,Neither basal nor glucose-stimulated insulin secretion appeared affected
same,displacing SAG and blocking canonical signalling,Smoothened,incapable of displacing standard 200 nM SAG and blocking canonical signalling
same,NAD+/NADH ratio,3T3-L1 adipocytes [2]; cyclopamine 100 nM,augmentation of the NAD^+/NADH ratio
same,generation of lactate,3T3-L1 adipocytes [2]; cyclopamine 100 nM,generation of lactate
same,glucose uptake,3T3-L1 adipocytes [2]; cyclopamine 100 nM,marked glucose uptake
same,tissue-specific glucose uptake (glucose tracing),"C57BL/6J mice [5]; LD 1 mg/kg, HD 10 mg/kg, EDL, Soleus, VL",increased glucose-uptake into muscle
same,time to increase in glucose infusion rate,C57BL/6J mice [5]; after cyclopamine infusion,10 to 20 min
same,glucose infusion rate,"C57BL/6J mice [5]; low dose 1 mg/kg, high dose 10 mg/kg, somatostatin infusion",robust dose-dependent increases in glucose infusion rate
